Experimental findings from the Kinase Knowledgebase extract (Sharma et al. 2016) are described below.

The assay deals with EGFR (UniProt P00533).
Sequence of EGFR (P00533 whole entry, looked up): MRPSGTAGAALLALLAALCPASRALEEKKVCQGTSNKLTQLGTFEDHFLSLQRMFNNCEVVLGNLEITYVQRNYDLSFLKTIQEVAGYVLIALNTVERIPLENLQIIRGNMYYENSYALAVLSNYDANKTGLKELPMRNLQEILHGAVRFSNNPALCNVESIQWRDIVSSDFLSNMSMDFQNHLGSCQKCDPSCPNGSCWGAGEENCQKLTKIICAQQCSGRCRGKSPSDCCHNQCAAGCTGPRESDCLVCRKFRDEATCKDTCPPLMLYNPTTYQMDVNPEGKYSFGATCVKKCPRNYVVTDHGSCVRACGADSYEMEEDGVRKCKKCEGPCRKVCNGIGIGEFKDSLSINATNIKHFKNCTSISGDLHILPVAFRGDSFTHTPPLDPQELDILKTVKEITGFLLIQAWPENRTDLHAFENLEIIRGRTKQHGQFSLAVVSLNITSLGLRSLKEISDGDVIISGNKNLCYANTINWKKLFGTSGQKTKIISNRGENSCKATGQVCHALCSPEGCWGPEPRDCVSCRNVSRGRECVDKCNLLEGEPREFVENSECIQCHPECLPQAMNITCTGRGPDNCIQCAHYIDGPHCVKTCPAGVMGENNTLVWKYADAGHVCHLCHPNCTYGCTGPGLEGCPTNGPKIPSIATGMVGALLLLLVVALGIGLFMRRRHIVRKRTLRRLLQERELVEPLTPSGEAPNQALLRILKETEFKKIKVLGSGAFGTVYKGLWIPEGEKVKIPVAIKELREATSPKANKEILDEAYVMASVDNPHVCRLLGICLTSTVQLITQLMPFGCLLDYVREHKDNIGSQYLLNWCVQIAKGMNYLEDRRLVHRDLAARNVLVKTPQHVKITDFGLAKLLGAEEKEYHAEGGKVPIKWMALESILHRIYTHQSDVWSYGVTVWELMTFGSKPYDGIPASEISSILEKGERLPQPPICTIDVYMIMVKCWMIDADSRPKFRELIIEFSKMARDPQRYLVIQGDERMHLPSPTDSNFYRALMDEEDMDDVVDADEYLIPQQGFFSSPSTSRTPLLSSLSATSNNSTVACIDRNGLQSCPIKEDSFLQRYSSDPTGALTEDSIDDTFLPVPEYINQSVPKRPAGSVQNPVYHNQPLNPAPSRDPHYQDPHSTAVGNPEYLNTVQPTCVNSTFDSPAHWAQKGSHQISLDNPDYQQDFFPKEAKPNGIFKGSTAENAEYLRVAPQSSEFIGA

`CCC(=O)Nc1csc2ccccc2c1=O`: the IC50 was over 100 µM.

Compound `CCOC(=O)NC(=O)Nc1csc2ccccc2c1=O` yielded an IC50 of over 100 µM.

On to `O=C(CCO)Nc1csc2ccccc2c1=O`, for which the IC50 is over 100 µM.

`O=C(O)C(=O)Nc1cc(=O)c2ccccc2s1` gave an IC50 of over 100 µM.

Regarding `CCCCNC(=O)Nc1csc2ccccc2c1=O`, the IC50 was over 100 µM.

On to `O=c1cc(-c2ccccc2)oc2ccccc12`, for which the IC50 stood at 50 µM.

The compound `CN(C)C(=O)Nc1coc2ccccc2c1=O` registered an IC50 of over 100 µM.

Compound `CCNC(=O)Nc1csc2ccccc2c1=O` registered an IC50 of over 100 µM.

As to `CCCCNC(=O)Nc1coc2ccccc2c1=O`, the IC50 is over 100 µM.

Take `CNC(=O)Nc1coc2ccccc2c1=O`: the IC50 is over 100 µM.

`CC(C)NC(=O)Nc1coc2ccccc2c1=O` yielded an IC50 of over 100 µM.

Compound `CCNC(=O)Nc1csc2ccc(C)cc2c1=O` came in with an IC50 of over 100 µM.

`CCNC(=O)Nc1csc2ccc(OC)cc2c1=O` returned an IC50 of over 100 µM.

On to `COC(=O)C(=O)Nc1csc2ccccc2c1=O`, for which the IC50 was over 100 µM.

Take `CN(C)Cc1coc2ccccc2c1=O`: the IC50 was over 100 µM.

`O=c1cc(-c2ccc(O)cc2)oc2cc(O)cc(O)c12` had an IC50 of 25 µM.

The compound `CCNC(=O)NC1=CS(=O)(=O)c2ccccc2C1=O` came in with an IC50 of over 100 µM.

On to `O=C(O)C(=O)Nc1csc2ccccc2c1=O`, for which the IC50 was over 100 µM.

On to `CCNC(=O)Nc1csc2ccc(F)cc2c1=O`, for which the IC50 is over 100 µM.

The compound `CNC(=O)Nc1csc2ccccc2c1=O` had an IC50 of over 100 µM.

In the case of `CC(C)(C)NC(=O)Nc1coc2ccccc2c1=O`, the IC50 is over 100 µM.

`CCNC(=O)Nc1coc2ccccc2c1=O` came in with an IC50 of over 100 µM.

A word on the IC50: it is the concentration that inhibits the measured activity by half. Read a low IC50 as greater potency in that assay.
